From the supplement of paper PMC12463676, “Small-molecule dissolution of stress granules by redox modulation benefits ALS models” (Nature Chemical Biology, 2025)

Assays:
[1] = compound: O=[As]([O-])(O)O.[K+] [potassium arsenate]; test: thermal stability z-score vs DMSO; higher = more thermally stabilized by treatment; conditions: HeLa; arsenate concentration 1 mM
Procedure: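 Cellular thermal proteome profiling in HeLa cells treated with 1 mM arsenate for 1 h (DMSO pretreatment), heated to ten temperatures (37-66.3 °C). Soluble protein was quantified by TMT mass spectrometry relative to DMSO controls; the thermal stability score was transformed to a z-score; mean of n = 3 experiments.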

[2] = compound: NC(=O)CCCCC1CCSS1 [lipoamide]; test: as above; conditions: HeLa, lipoamide concentration 100 µM
Procedure: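 Cellular thermal proteome profiling in HeLa cells. Cells were treated with 100 µM lipoamide for 1 h, with or without 1 mM arsenate for a further 1 h, then heated to ten temperatures (37-66.3 °C), and soluble protein was quantified by TMT mass spectrometry relative to 0.1% DMSO controls. The thermal stability score (sum of log2 fold changes minus the abundance score) was transformed to a z-score; mean of n = 3 experiments.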

[3] = arsenate co-treatment: 1 mM arsenate 1 h
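Note: each temperature applied for 3 min, abundance score taken as mean log2 fold change at the two lowest temperatures, z-score obtained by mean subtraction and division by SD.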

UniProt P17050, sequence (P17050 whole entry): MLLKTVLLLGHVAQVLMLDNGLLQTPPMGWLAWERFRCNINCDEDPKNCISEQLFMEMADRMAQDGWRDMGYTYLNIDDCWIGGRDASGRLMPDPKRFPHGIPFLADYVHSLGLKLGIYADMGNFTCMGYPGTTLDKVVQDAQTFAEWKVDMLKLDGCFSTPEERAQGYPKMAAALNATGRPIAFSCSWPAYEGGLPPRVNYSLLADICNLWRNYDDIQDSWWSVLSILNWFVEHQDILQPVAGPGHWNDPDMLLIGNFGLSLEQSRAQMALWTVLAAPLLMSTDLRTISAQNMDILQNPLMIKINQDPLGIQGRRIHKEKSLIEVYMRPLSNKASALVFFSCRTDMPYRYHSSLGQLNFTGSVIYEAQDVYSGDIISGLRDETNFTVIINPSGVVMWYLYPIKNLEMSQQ
UniProt Q9H501, sequence (Q9H501 whole entry): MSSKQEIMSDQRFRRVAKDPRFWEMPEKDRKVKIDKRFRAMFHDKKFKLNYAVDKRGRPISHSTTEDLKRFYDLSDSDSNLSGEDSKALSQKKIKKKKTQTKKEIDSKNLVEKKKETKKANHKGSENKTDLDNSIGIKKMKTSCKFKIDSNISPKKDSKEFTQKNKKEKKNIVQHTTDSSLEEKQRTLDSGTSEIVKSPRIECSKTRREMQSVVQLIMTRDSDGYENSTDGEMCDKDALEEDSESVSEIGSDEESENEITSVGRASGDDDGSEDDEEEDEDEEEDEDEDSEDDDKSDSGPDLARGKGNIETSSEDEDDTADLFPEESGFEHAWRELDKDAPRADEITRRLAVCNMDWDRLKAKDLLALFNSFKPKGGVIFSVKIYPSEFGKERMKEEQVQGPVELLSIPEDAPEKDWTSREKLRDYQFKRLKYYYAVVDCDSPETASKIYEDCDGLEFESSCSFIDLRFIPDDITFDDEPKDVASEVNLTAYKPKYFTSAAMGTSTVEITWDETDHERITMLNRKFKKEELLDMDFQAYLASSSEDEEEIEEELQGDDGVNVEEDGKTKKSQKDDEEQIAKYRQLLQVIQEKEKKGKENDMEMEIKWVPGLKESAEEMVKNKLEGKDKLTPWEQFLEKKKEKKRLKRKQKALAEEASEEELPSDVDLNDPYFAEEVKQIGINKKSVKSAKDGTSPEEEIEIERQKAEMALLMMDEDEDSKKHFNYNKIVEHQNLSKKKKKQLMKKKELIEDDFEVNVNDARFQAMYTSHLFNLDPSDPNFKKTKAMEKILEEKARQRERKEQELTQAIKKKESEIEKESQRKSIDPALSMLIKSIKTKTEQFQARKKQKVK
UniProt Q14137, sequence (Q14137 whole entry): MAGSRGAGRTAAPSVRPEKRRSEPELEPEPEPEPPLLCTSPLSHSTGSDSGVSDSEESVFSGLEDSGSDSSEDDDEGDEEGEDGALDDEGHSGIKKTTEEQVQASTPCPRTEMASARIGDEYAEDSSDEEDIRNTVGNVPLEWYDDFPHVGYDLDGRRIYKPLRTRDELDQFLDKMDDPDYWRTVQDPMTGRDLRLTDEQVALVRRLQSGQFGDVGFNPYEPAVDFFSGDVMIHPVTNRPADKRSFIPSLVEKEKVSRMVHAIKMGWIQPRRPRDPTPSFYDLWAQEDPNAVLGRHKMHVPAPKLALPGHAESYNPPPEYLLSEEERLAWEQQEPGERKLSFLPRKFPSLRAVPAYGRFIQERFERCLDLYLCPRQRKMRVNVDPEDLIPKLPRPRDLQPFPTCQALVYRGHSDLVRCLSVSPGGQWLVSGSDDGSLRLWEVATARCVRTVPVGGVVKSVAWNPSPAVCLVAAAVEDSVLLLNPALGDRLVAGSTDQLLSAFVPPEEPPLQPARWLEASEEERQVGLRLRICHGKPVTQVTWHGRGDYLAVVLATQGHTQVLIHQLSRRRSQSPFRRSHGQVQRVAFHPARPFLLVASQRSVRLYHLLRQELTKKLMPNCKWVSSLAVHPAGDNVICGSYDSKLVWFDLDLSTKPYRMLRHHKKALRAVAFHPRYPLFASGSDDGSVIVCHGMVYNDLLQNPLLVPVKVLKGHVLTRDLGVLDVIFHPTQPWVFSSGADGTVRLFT
UniProt P07711, sequence (P07711 whole entry, looked up): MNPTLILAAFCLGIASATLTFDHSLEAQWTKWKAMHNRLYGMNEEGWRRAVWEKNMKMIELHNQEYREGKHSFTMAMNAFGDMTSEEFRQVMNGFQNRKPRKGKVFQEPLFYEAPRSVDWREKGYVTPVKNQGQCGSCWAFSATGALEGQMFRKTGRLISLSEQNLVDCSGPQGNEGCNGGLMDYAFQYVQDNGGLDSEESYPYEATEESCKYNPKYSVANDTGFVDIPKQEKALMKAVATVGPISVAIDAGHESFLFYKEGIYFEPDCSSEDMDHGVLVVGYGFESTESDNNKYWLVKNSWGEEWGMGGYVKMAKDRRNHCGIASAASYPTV
UniProt O14672, sequence (O14672 whole entry): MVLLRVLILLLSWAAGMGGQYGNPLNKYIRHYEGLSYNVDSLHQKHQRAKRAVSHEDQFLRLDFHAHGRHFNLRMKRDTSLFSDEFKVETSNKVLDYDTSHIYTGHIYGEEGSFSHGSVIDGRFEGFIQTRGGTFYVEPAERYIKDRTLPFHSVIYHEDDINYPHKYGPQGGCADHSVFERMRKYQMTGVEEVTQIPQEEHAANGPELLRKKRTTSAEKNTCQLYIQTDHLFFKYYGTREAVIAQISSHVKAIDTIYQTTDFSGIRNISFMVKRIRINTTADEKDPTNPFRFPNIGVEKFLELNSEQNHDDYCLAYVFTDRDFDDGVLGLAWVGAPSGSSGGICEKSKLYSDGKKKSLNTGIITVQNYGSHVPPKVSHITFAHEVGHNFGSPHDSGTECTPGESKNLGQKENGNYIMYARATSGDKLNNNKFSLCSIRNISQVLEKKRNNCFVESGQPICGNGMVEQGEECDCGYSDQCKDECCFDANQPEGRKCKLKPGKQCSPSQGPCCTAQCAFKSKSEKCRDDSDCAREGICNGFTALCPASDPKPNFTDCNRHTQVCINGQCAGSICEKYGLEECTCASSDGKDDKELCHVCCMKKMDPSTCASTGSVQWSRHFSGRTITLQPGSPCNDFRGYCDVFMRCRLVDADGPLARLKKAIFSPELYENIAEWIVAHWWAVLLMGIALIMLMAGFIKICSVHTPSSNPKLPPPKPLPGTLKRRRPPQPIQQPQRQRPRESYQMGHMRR
UniProt Q7Z5L2, sequence (Q7Z5L2 whole entry): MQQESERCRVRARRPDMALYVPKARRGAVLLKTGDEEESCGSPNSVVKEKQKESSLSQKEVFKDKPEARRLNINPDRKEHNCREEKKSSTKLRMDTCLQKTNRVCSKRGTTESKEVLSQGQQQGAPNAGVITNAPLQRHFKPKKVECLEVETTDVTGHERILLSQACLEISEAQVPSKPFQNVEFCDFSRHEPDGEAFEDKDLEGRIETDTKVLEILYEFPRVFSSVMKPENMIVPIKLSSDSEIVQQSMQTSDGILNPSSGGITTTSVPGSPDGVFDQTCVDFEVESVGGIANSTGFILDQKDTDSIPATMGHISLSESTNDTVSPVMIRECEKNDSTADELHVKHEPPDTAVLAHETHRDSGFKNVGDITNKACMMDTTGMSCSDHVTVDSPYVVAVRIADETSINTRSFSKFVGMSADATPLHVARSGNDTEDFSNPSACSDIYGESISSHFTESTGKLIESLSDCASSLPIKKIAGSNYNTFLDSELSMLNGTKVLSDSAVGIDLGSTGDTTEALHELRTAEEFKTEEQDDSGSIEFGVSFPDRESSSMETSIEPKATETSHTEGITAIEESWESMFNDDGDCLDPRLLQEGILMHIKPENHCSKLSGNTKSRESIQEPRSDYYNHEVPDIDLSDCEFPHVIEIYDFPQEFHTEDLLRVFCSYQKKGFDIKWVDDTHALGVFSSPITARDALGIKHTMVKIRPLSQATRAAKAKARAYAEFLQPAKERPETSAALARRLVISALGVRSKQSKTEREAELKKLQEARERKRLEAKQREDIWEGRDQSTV
UniProt O15126, sequence (O15126 whole entry): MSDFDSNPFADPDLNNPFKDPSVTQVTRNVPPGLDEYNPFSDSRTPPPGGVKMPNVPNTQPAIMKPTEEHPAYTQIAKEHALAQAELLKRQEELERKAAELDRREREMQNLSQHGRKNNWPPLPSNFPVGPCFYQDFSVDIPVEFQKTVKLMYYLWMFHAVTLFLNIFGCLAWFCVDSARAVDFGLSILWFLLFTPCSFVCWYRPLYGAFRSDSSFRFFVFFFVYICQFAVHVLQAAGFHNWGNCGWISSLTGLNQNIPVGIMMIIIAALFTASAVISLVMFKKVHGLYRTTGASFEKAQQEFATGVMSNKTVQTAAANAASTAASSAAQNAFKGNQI
UniProt Q15102, sequence (Q15102 whole entry): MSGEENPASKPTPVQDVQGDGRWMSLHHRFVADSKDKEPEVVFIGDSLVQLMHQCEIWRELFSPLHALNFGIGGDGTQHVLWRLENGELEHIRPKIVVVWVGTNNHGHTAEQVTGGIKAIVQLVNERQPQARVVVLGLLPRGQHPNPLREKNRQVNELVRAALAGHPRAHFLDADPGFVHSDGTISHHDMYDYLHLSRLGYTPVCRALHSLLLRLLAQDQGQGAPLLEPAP
UniProt O95229, sequence (O95229 whole entry): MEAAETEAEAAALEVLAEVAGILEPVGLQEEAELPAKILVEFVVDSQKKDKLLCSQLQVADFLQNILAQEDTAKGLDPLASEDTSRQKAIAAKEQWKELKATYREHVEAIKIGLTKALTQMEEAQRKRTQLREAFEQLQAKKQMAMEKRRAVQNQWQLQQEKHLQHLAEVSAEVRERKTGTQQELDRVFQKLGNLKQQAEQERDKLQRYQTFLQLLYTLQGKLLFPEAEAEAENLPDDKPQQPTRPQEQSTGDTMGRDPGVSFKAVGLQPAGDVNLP
UniProt Q9BRG1, sequence (Q9BRG1 whole entry): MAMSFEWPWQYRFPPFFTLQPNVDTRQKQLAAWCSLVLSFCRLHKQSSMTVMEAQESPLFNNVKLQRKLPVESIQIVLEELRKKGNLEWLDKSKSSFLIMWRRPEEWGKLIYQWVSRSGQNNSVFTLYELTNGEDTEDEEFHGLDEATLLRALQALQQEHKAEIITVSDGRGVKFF

For LRPAP1 (UniProt P30533), the thermal stability z-score [1] was -0.32, the thermal stability z-score [2, 3] was -1.07 and the thermal stability z-score ([2]; arsenate co-treatment: none) was -0.56.

POLRMT (UniProt O00411) gave a thermal stability z-score [1] of -0.331, a thermal stability z-score [2, 3] of 0.314 and a thermal stability z-score ([2]; arsenate co-treatment: none) of -0.744.

With SCAMP1 (UniProt O15126) the thermal stability z-score [1] was 0.0619, the thermal stability z-score [2, 3] was 0.621 and the thermal stability z-score ([2]; arsenate co-treatment: none) was 0.765.

Target KBTBD4 (UniProt Q9NVX7) has a thermal stability z-score [1] of 0.259, a thermal stability z-score [2, 3] of 0.389 and a thermal stability z-score ([2]; arsenate co-treatment: none) of -0.408.

Work on CLUH (UniProt O75153) yielded a thermal stability z-score [1] of -0.134, a thermal stability z-score [2, 3] of 0.336 and a thermal stability z-score ([2]; arsenate co-treatment: none) of 1.47.

PTPN9 (UniProt P43378) was tested, and the thermal stability z-score [1] was 0.0393, the thermal stability z-score [2, 3] was -0.0496 and the thermal stability z-score ([2]; arsenate co-treatment: none) was 0.0634.

In the case of MYL12A|MYL12B, the thermal stability z-score [1] is reported as -0.0176, the thermal stability z-score [2, 3] is reported as 0.352 and the thermal stability z-score ([2]; arsenate co-treatment: none) is reported as 0.436.

Work on POLR2H (UniProt P52434) yielded a thermal stability z-score [1] of -0.373, a thermal stability z-score [2, 3] of 0.98 and a thermal stability z-score ([2]; arsenate co-treatment: none) of 1.03.

Target R3HCC1L (UniProt Q7Z5L2) has a thermal stability z-score [1] of 0.0177, a thermal stability z-score [2, 3] of 0.00414 and a thermal stability z-score ([2]; arsenate co-treatment: none) of 0.282.

For CTSL (UniProt P07711), the thermal stability z-score [1] was 0.977, the thermal stability z-score [2, 3] was -0.924 and the thermal stability z-score ([2]; arsenate co-treatment: none) was -0.44.

NTHL1 (UniProt P78549) showed a thermal stability z-score [1] of -0.137, a thermal stability z-score [2, 3] of 0.00215 and a thermal stability z-score ([2]; arsenate co-treatment: none) of -0.00667.

For TXN2 (UniProt Q99757), the thermal stability z-score [1] was 2.39, the thermal stability z-score [2, 3] was -0.504 and the thermal stability z-score ([2]; arsenate co-treatment: none) was 0.00983.

RRM2B (UniProt Q7LG56) gave a thermal stability z-score [1] of -0.703, a thermal stability z-score [2, 3] of 0.945 and a thermal stability z-score ([2]; arsenate co-treatment: none) of 0.415.

In the case of TRAP1 (UniProt Q12931), the thermal stability z-score [1] is reported as -0.477, the thermal stability z-score [2, 3] is reported as -1.2 and the thermal stability z-score ([2]; arsenate co-treatment: none) is reported as 0.188.

In the case of CINP (UniProt Q9BW66), the thermal stability z-score [1] is reported as 0.256, the thermal stability z-score [2, 3] is reported as -0.0967 and the thermal stability z-score ([2]; arsenate co-treatment: none) is reported as -0.169.

MRPL4 (UniProt Q9BYD3) showed a thermal stability z-score [1] of -0.138, a thermal stability z-score [2, 3] of -0.319 and a thermal stability z-score ([2]; arsenate co-treatment: none) of -0.59.

NAGA (UniProt P17050) showed a thermal stability z-score [1] of 0.546, a thermal stability z-score [2, 3] of -0.786 and a thermal stability z-score ([2]; arsenate co-treatment: none) of -0.0771.

For VPS25 (UniProt Q9BRG1), the thermal stability z-score [1] was 0.0183, the thermal stability z-score [2, 3] was -0.593 and the thermal stability z-score ([2]; arsenate co-treatment: none) was -0.349.

Work on ATP6V1E1 (UniProt P36543) yielded a thermal stability z-score [1] of 0.637, a thermal stability z-score [2, 3] of 0.0691 and a thermal stability z-score ([2]; arsenate co-treatment: none) of -0.201.

RHBDF2 (UniProt Q6PJF5) gave a thermal stability z-score [1] of 0.166, a thermal stability z-score [2, 3] of -0.0324 and a thermal stability z-score ([2]; arsenate co-treatment: none) of -0.158.

Work on SCFD1 (UniProt Q8WVM8) yielded a thermal stability z-score [1] of 0.224, a thermal stability z-score [2, 3] of -0.771 and a thermal stability z-score ([2]; arsenate co-treatment: none) of -0.32.

KNTC1 (UniProt P50748) gave a thermal stability z-score [1] of 0.572, a thermal stability z-score [2, 3] of -0.59 and a thermal stability z-score ([2]; arsenate co-treatment: none) of -0.253.

TK1 (UniProt P04183) gave a thermal stability z-score [1] of -0.307, a thermal stability z-score [2, 3] of 0.233 and a thermal stability z-score ([2]; arsenate co-treatment: none) of 0.418.

In the case of ANO6 (UniProt Q4KMQ2), the thermal stability z-score [1] is reported as -0.286, the thermal stability z-score [2, 3] is reported as -0.102 and the thermal stability z-score ([2]; arsenate co-treatment: none) is reported as -0.0242.

TNFRSF10A (UniProt O00220) showed a thermal stability z-score [1] of -1.65, a thermal stability z-score [2, 3] of -1.82 and a thermal stability z-score ([2]; arsenate co-treatment: none) of -1.91.

Target IDI1 (UniProt Q13907) has a thermal stability z-score [1] of 0.042, a thermal stability z-score [2, 3] of 1.01 and a thermal stability z-score ([2]; arsenate co-treatment: none) of 0.458.

ESF1 (UniProt Q9H501) was tested, and the thermal stability z-score [1] was 0.24, the thermal stability z-score [2, 3] was 0.105 and the thermal stability z-score ([2]; arsenate co-treatment: none) was 0.129.

For STAT3 (UniProt P40763), the thermal stability z-score [1] was 0.426, the thermal stability z-score [2, 3] was 0.0355 and the thermal stability z-score ([2]; arsenate co-treatment: none) was -0.181.

BOP1 (UniProt Q14137) was tested, and the thermal stability z-score [1] was 0.0419, the thermal stability z-score [2, 3] was -1.64 and the thermal stability z-score ([2]; arsenate co-treatment: none) was -0.108.

FAM175B (UniProt Q15018) gave a thermal stability z-score [1] of -0.57, a thermal stability z-score [2, 3] of 0.515 and a thermal stability z-score ([2]; arsenate co-treatment: none) of 0.293.

For APOL2 (UniProt Q9BQE5), the thermal stability z-score [1] was 0.589, the thermal stability z-score [2, 3] was -0.399 and the thermal stability z-score ([2]; arsenate co-treatment: none) was 0.15.

With CRTC3 (UniProt Q6UUV7) the thermal stability z-score [1] was 0.1, the thermal stability z-score [2, 3] was -0.316 and the thermal stability z-score ([2]; arsenate co-treatment: none) was -0.025.

In the case of ZWINT (UniProt O95229), the thermal stability z-score [1] is reported as 0.0525, the thermal stability z-score [2, 3] is reported as 0.0176 and the thermal stability z-score ([2]; arsenate co-treatment: none) is reported as -0.0608.

ADAM10 (UniProt O14672) gave a thermal stability z-score [1] of -0.0434, a thermal stability z-score [2, 3] of -1.72 and a thermal stability z-score ([2]; arsenate co-treatment: none) of -1.52.

PAFAH1B3 (UniProt Q15102) showed a thermal stability z-score [1] of 0.275, a thermal stability z-score [2, 3] of 0.574 and a thermal stability z-score ([2]; arsenate co-treatment: none) of 0.345.
